# From patent US10227324B2 (Shanghai Haiyan Pharmaceutical Technology Co., Ltd., priority 2014, dated 2019)
# Read-outs that look alike come from different tables or passages of the source.
# Key:
# [1] = target: T1, PI3K-α kinase (p110α/p85α) (Homo sapiens, UniProt P42336); assay: Determination of PI3K kinase activity (ADP Transcreener, fluorescence polarization); format: biochemical; settings: for IC50: ATP 10 μM; for increase of inhibitory activity against PI3K-α kinase compared with BKM-120: relative to BKM-120
# T1 construct: purchased Invitrogen PV4788
# T1 sequence (P42336 whole entry): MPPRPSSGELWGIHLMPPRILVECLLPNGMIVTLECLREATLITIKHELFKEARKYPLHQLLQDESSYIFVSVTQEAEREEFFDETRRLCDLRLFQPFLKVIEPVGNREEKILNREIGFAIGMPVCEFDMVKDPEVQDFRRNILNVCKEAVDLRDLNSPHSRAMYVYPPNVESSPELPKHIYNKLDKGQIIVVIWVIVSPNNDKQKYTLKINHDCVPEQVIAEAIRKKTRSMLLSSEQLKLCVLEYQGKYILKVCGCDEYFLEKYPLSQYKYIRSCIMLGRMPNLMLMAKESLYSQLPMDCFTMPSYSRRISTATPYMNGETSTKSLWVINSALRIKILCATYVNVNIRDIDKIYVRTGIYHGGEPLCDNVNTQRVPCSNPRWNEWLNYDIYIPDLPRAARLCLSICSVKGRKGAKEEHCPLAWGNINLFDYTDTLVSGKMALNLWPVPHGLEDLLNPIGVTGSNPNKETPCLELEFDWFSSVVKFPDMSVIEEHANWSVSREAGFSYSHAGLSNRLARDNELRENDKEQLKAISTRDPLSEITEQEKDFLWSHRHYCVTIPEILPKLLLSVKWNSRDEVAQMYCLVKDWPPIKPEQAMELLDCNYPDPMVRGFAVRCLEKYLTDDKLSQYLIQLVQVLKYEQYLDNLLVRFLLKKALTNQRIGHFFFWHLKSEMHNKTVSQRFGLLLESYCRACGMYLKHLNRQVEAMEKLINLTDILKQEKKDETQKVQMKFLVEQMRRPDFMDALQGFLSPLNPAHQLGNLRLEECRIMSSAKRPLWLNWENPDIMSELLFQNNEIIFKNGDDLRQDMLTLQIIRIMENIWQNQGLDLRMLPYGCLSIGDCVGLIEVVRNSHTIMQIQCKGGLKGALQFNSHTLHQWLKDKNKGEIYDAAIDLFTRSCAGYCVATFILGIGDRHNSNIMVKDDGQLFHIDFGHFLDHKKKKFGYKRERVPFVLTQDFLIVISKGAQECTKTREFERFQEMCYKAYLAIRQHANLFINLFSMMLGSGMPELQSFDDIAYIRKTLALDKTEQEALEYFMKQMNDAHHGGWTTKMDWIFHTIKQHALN
# T1 sequence (P27986 whole entry partner): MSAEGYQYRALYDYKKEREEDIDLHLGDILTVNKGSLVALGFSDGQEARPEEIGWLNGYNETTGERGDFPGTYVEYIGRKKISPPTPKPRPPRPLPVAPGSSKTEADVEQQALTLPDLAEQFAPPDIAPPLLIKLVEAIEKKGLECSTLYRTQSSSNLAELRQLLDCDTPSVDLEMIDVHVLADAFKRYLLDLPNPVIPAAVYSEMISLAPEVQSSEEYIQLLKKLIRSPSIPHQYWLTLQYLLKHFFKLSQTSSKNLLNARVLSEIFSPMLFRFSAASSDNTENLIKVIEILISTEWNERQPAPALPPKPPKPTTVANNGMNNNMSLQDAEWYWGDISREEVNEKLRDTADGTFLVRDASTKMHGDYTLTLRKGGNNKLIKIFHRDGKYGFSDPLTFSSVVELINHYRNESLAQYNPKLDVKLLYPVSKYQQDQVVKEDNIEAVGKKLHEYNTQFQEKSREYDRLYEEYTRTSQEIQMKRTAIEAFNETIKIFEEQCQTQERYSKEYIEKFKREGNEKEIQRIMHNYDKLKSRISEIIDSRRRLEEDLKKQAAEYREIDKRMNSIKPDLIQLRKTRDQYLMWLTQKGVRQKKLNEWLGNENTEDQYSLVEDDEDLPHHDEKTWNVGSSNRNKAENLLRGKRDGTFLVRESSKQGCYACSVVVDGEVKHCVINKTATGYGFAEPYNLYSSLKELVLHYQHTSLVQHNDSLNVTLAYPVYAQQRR
# [2] = target: T2, PI3K-β kinase (p110β/p85α) (Homo sapiens, UniProt P42338); assay: as above; format: biochemical; settings: Table 1; ATP 10 μM; read-out: PI3K-β/nM (IC50 of inhibitory activity against PI3K kinase)
# T2 construct: purchased Millipore 14-603
# T2 sequence (P42338 whole entry): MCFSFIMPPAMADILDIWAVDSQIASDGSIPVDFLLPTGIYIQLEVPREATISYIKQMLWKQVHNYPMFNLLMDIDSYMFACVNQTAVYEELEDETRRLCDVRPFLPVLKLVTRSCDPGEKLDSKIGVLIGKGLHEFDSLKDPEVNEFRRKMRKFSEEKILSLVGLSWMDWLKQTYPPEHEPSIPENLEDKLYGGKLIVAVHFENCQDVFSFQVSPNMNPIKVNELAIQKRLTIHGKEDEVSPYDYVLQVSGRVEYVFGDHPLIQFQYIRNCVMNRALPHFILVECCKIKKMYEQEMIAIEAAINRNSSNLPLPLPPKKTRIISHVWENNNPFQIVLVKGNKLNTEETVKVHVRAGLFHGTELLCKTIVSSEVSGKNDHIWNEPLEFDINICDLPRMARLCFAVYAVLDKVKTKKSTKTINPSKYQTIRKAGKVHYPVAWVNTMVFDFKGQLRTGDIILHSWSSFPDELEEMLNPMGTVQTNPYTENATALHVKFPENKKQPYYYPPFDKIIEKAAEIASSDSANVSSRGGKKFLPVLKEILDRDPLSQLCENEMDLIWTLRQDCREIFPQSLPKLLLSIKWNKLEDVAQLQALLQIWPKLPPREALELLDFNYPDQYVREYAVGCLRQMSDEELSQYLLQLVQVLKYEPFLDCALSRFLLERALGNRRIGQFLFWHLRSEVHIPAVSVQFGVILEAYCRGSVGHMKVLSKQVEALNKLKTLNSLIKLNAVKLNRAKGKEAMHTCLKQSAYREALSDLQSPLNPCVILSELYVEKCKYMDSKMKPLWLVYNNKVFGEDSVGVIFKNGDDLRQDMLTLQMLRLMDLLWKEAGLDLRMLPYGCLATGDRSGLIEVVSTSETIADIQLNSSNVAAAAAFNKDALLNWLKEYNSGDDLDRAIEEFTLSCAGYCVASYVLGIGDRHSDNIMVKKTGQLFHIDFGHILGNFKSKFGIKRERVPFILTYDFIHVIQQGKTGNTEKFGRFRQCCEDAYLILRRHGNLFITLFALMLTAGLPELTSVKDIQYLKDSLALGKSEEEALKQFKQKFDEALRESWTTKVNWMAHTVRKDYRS
# T2 sequence (P27986 whole entry partner): as the sequence (P27986 whole entry partner) above
# [3] = target: T3, PI3K-δ kinase (p110δ/p85α) (Homo sapiens, UniProt O00329); assay: as above; format: biochemical; settings: Table 1; ATP 10 μM; read-out: PI3K-δ/nM (IC50 of inhibitory activity against PI3K kinase)
# T3 construct: purchased Millipore 14-604M
# T3 sequence (O00329 whole entry): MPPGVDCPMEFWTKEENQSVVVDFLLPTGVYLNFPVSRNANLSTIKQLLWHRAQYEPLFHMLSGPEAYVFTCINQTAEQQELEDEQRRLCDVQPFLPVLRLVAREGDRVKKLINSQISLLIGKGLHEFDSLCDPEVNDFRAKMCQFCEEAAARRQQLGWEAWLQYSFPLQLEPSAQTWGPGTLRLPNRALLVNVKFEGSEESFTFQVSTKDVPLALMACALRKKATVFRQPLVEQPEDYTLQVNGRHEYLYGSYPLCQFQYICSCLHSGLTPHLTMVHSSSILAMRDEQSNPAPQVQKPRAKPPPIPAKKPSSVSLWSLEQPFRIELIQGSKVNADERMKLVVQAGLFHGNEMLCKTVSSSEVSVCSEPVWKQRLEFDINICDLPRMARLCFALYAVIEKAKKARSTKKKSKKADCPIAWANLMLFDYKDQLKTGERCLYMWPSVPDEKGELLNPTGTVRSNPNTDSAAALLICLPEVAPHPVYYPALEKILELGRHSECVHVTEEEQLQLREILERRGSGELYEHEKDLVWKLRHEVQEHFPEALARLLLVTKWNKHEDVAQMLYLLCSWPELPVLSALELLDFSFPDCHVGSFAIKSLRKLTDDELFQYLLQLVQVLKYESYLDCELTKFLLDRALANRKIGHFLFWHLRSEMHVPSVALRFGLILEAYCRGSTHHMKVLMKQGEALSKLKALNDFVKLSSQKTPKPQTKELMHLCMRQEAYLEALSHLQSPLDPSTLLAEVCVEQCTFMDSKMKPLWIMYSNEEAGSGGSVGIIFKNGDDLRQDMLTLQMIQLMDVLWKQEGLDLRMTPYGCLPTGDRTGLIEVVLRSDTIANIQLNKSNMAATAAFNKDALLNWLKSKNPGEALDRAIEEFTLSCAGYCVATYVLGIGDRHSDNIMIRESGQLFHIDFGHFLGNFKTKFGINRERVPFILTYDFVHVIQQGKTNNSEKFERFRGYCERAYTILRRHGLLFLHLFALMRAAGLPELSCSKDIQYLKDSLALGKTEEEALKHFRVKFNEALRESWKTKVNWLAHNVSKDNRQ
# T3 sequence (P27986 whole entry partner): as the sequence (P27986 whole entry partner) above
# [4] = test system: Akt phosphorylation (Ser473-p-Akt) in PC-3 cells; assay: Inhibition of p-Akt phosphorylation level in PC-3 cells (cell level fluorescence imaging); format: cell-based; settings: Homo sapiens, read-out: PC-3 cell (IC50/nM)
# Protocol: This experiment was performed by cell level fluorescence image processing method.
# Triton X-100: 10% aqueous Triton X-100 solution (Sigma T8787-100 mL) was prepared, stored at 4° C. and diluted by 1:100 to give 0.1% Triton X-100 aqueous solution for use in the experiment.
# Prodium Iodide (PI): 1 mg/mL (1.5 mM) PI (Sigma P4170) storage solution was prepared with PBS and stored at −25° C. in the dark. For use, the PI storage solution was diluted with PBS by 1:1000 to give a 1.5 μM solution and used in dark.
# PC-3 cells in logarithmic growth phase were digested with 0.25% EDTA trypsin. 3000 cells/90 μL were seeded in a 96-well plate (BD 356692) and cultured at 37° C. and 5% CO2. After the cells adhered, 10 μL of the compound to be tested which was gradiently diluted 3 times (0.0046 to 10 μM, 8 concentration points, in duplicate) was added and incubated for 2 hours, followed by addition of 100 μL of 4% paraformaldehyde (DINGGUO AR-0211) and incubated at room temperature for 45 minutes. Then 100 μL of 0.1% Triton X-100 solution was added and incubated for another 30 minutes.
# Triton X-100 solution was removed and the cells were rinsed with 200 μl of PBS twice (300 rpm vibration for 1 minute). The blocking solution (1% BSA solution in PBS) (Genview FA016-100G) was added and incubated at room temperature for 2 hours. The plate was rinsed with PBS once (300 rpm, 1 min) and 30 μL of Ser473-p-Akt antibody (cell signaling 4060L) diluted with 0.1% BSA was added and incubated overnight at 4° C. Ser473-p-Akt antibody was removed and the plate was rinsed with PBS twice (300 rpm, 1 minute). 35 μL of Alexa Flour 488 donkey anti-rabbit IgG (Invitrogen A21206) was added and incubated at room temperature for 1.5 hours. The plate was rinsed with PBS twice (300 rpm, 1 minute) and 35 μL of 1.5 μM PI was added and incubated at room temperature for 0.5 h. The fluorescence intensity was measured with Acumen eX3 (TTP LabTech).
# 10 μM BEZ235 (Selleck S1009) treatment group was negative control and DMSO treatment group was positive control. Inhibition ratio %=[1−(the mean value of the fluorescence intensity of the compound to be tested−the mean value of the fluorescence intensity of the negative control group)/(the mean value of the fluorescence intensity of the positive control group−the mean value of the fluorescence intensity of the negative control group)]×100%
# [5] = Table 1, read-out: PI3K-α/nM (IC50 of inhibitory activity against PI3K kinase)
# [6] = Akt phosphorylation in PC-3 cells, 2 hours incubation
# [7] = Table 2, read-out: PI3K-α/nM (IC50 of inhibitory activity against PI3K-α kinase)
structure (smiles),measurement,setting,value
CS(=O)(=O)C1(c2cc(-c3cnc(N)cc3C(F)(F)F)nc(N3CCOCC3)n2)CCC1 [Compound S-4],IC50,[1]; [5],12 nM
same,IC50,[2],527 nM
same,IC50,[3],184 nM
same,IC50,[4]; [6],248 nM
C[C@H]1COCCN1c1nc(-c2cnc(N)cc2C(F)(F)F)cc(C2(S(C)(=O)=O)CCC2)n1 [Compound S-9],IC50,[1]; [5],5 nM
same,increase of inhibitory activity against PI3K-α kinase compared with BKM-120,[1],about 10 times
same,IC50,[2],105 nM
same,IC50,[3],63 nM
same,IC50,[4]; [6],184 nM
CS(=O)(=O)C1(c2cc(-c3cnc(N)cc3C(F)(F)F)nc(N3CCOCC3)n2)CCCC1 [Compound S-10],IC50,[1]; [5],42 nM
same,IC50,[2],1140 nM
same,IC50,[3],367 nM
same,IC50,[4]; [6],384 nM
"CC(C)S(=O)(=O)C1(c2cc(-c3cnc(N)cc3C(F)(F)F)nc(N3CCOC[C@@H]3C)n2)CCC1 [Compound S-13, (S)-5-(6-(1-(isopropylsulfonyl)cyclobutyl)-2-(3-methylmorpholino)pyrimidin-4-yl)-4-(trifluoromethyl)pyridin-2-amine]",IC50,[1]; [5],67 nM
same,IC50,[2],1670 nM
same,IC50,[3],226 nM
same,IC50,[4]; [6],463 nM
CC(C)S(=O)(=O)C1(c2cc(-c3cnc(N)cc3C(F)(F)F)nc(N3CCOCC3)n2)CC1 [Compound S-18],IC50,[2],548 nM
same,IC50,[3],246 nM
same,IC50,[4]; [6],430 nM
CC(C)S(=O)(=O)C1(c2cc(-c3cnc(N)cc3C(F)(F)F)nc(N3CCOCC3)n2)CCC1 [Compound S-19],IC50,[1]; [5],80 nM
same,IC50,[2],512 nM
same,IC50,[3],493 nM
same,IC50,[4]; [6],575 nM
Nc1cc(C(F)(F)F)c(-c2cc(C3(S(=O)(=O)c4ccccc4)CCC3)nc(N3CCOCC3)n2)cn1 [Compound S-20],IC50,[1]; [5],24 nM
same,IC50,[2],676 nM
same,IC50,[3],42 nM
CCS(=O)(=O)C1(c2cc(-c3cnc(N)cc3C(F)(F)F)nc(N3CCOC[C@@H]3C)n2)CCC1 [Compound S-23],IC50,[1]; [5],16 nM
same,IC50,[2],620 nM
same,IC50,[3],62 nM
same,IC50,[4]; [6],366 nM
C[C@H]1COCCN1c1nc(-c2cnc(N)nc2C(F)(F)F)cc(C2(S(C)(=O)=O)CCC2)n1 [Compound S-30],IC50,[1]; [5],12 nM
same,IC50,[2],18 nM
same,IC50,[3],12 nM
same,IC50,[4]; [6],101 nM
C[C@H]1COCCN1c1nc(-c2cnc(N)cc2Cl)cc(C2(S(C)(=O)=O)CCC2)n1 [Compound S-31],IC50,[1]; [5],12 nM
same,IC50,[2],171 nM
same,IC50,[3],103 nM
same,IC50,[4]; [6],126 nM
C[C@H]1COCCN1c1nc(-c2ccc(N)nc2)cc(C2(S(C)(=O)=O)CCC2)n1 [Compound S-32],IC50,[1]; [5],76 nM
same,IC50,[2],977 nM
same,IC50,[3],161 nM
same,IC50,[4]; [6],74 nM
C[C@H]1COCCN1c1nc(-c2cnc(N)nc2)cc(C2(S(C)(=O)=O)CCC2)n1 [Compound S-33],IC50,[1]; [5],12 nM
same,IC50,[2],115 nM
same,IC50,[3],58 nM
same,IC50,[4]; [6],109 nM
"CS(=O)(=O)C1(c2cc(-c3cnc(N)cc3Cl)nc(N3CCOCC3)n2)CC1 [Compound S-37, 4-chloro-5-(6-(1-(methylsulfonyl)cyclopropyl)-2-morpholinopyrimidin-4-yl)pyridin-2-amine]",IC50,[1]; [5],4 nM
same,IC50,[1]; [7],4 nM
same,increase of inhibitory activity against PI3K-α kinase compared with BKM-120,[1],about 10 times
same,IC50,[2],28 nM
same,IC50,[3],84 nM
same,IC50,[4]; [6],198 nM
"CC(C)(c1cc(-c2cnc(N)cc2Cl)nc(N2CCOCC2)n1)S(C)(=O)=O [Compound S-38, 4-chloro-5-(6-(2-(methylsulfonyl)prop-2-yl)-2-morpholinopyrimidin-4-yl)pyridin-2-amine]",IC50,[1]; [5],17 nM
same,IC50,[2],113 nM
same,IC50,[3],212 nM
same,IC50,[4]; [6],332 nM
C[C@H]1COCCN1c1nc(-c2cnc(N)cc2C(F)(F)F)cc(C(C)(C)S(C)(=O)=O)n1 [Compound S-41],IC50,[1]; [5],6 nM
same,IC50,[2],82 nM
same,IC50,[3],79 nM
same,IC50,[4]; [6],414 nM
CC(C)(c1cc(-c2cnc(N)nc2C(F)(F)F)nc(N2CCOCC2)n1)S(C)(=O)=O [Compound S-45],IC50,[1]; [5],35 nM
same,IC50,[2],28 nM
same,IC50,[3],17 nM
same,IC50,[4]; [6],156 nM
CS(=O)(=O)C1(c2cc(-c3cnc(N)nc3C(F)(F)F)nc(N3CCOCC3)n2)CC1 [Compound S-46],IC50,[1]; [5],6 nM
same,increase of inhibitory activity against PI3K-α kinase compared with BKM-120,[1],about 10 times
same,IC50,[2],8 nM
same,IC50,[3],13 nM
same,IC50,[4]; [6],131 nM
"CCS(=O)(=O)C1(c2cc(-c3cnc(N)cc3C(F)(F)F)nc(N3CCOCC3)n2)CCC1 [Compound S-49, 5-(6-(1-(ethylsulfonyl)cyclobutyl)-2-morpholinopyrimidin-4-yl)-4-(trifluoromethyl)pyridin-2-amine]",IC50,[1]; [5],17 nM
same,IC50,[2],327 nM
same,IC50,[3],85 nM
same,IC50,[4]; [6],382 nM
"CS(=O)(=O)C(F)(F)c1cc(-c2cnc(N)cc2Cl)nc(N2CCOCC2)n1 [Compound S-54, 4-chloro-5-(6-(difluoro(methylsulfonyl)methyl)-2-morpholinopyrimidin-4-yl)pyridin-2-amine]",IC50,[1]; [5],12 nM
same,IC50,[2],92 nM
same,IC50,[3],145 nM
same,IC50,[4]; [6],488 nM
Nc1cc(C(F)(F)F)c(-c2cc(C3(S(=O)(=O)c4ccccc4F)CC3)nc(N3CCOCC3)n2)cn1 [Compound S-58],IC50,[1]; [5],4 nM
same,IC50,[2],72 nM
same,IC50,[3],33 nM
same,IC50,[4]; [6],367 nM
Nc1cc(Cl)c(-c2cc(C3(S(=O)(=O)c4ccccc4F)CC3)nc(N3CCOCC3)n2)cn1 [Compound S-66],IC50,[1]; [5],9 nM
same,IC50,[1]; [7],9 nM
same,IC50,[2],73 nM
same,IC50,[3],46 nM
same,IC50,[4]; [6],253 nM
C[C@@H]1COCCN1c1nc(-c2cnc(N)cc2Cl)cc(C(C)(C)S(C)(=O)=O)n1 [Compound S-67],IC50,[1]; [5],6 nM
same,IC50,[1]; [7],6 nM
same,IC50,[2],208 nM
same,IC50,[3],59 nM
same,IC50,[4]; [6],187 nM
C[C@@H]1COCCN1c1nc(-c2cnc(N)cc2Cl)cc(C2(S(C)(=O)=O)CC2)n1 [Compound S-68],IC50,[1]; [5],8 nM
same,IC50,[1]; [7],8 nM
same,IC50,[2],92 nM
same,IC50,[3],143 nM
same,IC50,[4]; [6],183 nM
"COC(C)(C)c1cc(-c2cnc(N)cc2C(F)(F)F)nc(N2CCOCC2)n1 [Compound S-71, 5-(6-(2-methoxypropan-2-yl)-2-morpholinopyrimidin-4-yl)-4-(trifluoromethyl) pyridin-2-amine]",IC50,[1]; [5],9 nM
same,IC50,[2],177 nM
same,IC50,"[4]; PC-3, 2 h",555 nM
COC(C)(C)c1cc(-c2cnc(N)cc2Cl)nc(N2CCOC[C@@H]2C)n1 [Compound S-75],IC50,[1]; [5],23 nM
same,IC50,[1]; [7],23 nM
same,IC50,[2],943 nM
same,IC50,[3],810 nM
same,IC50,[4]; [6],385 nM
COC(C)(C)c1cc(-c2cnc(N)cc2Cl)nc(N2CCOCC2)n1 [Compound S-76],IC50,[1]; [5],53 nM
same,IC50,[1]; [7],53 nM
same,IC50,[2],316 nM
same,IC50,[3],207 nM
same,IC50,[4]; [6],531 nM
CC(C)(c1cc(-c2cnc(N)cc2F)nc(N2CCOCC2)n1)S(C)(=O)=O [Compound S-81],IC50,[1]; [5],43 nM
same,IC50,[2],812 nM
same,IC50,[3],178 nM
same,IC50,[4]; [6],215 nM
CS(=O)(=O)C1(c2cc(-c3cnc(N)cc3F)nc(N3CCOCC3)n2)CC1 [Compound S-82],IC50,[1]; [5],39 nM
same,IC50,[2],86 nM
same,IC50,[3],132 nM
same,IC50,[4]; [6],369 nM
C[C@H]1COCCN1c1nc(-c2cnc(N)cc2F)cc(C2(S(C)(=O)=O)CC2)n1 [Compound S-83],IC50,[1]; [5],20 nM
same,IC50,[4]; [6],196 nM
C[C@H]1COCCN1c1nc(-c2cnc(N)cc2F)cc(C(C)(C)S(C)(=O)=O)n1 [Compound S-84],IC50,[1]; [5],21 nM
same,IC50,[2],812 nM
same,IC50,[3],18 nM
same,IC50,[4]; [6],121 nM
CCS(=O)(=O)C1(c2cc(-c3cnc(N)cc3F)nc(N3CCOCC3)n2)CC1 [Compound S-85],IC50,[1]; [5],29 nM
same,IC50,[1]; [7],29 nM
same,IC50,[2],484 nM
same,IC50,[3],228 nM
same,IC50,[4]; [6],161 nM
